Structures are written as SMILES. Values after ≈ are worked out from the molar mass of the structure shown.

This is an account of results in patent EP0105872B1, “NOVEL COSMETIC COMPOSITIONS CONTAINING PRENYLAMINE AND A PROCESS FOR THEIR PREPARATION” (CAOLA KOZMETIKAI ES HAZTARTÄSVEGYIPARI VALLALAT, priority 1982, dated 1983).

For one data set, the system named is Streptococcus mutans. Kind of data set: Minimum inhibition concentration of prenilamine. It counts as cell-based.
In a further data set the test system is Streptococcus pneumoniae. Kind of data set: Minimum inhibition concentration of prenilamine. In kind it is cell-based.
The next data set deals with Staphylococcus epidermis. Kind of data set: Minimum inhibition concentration of prenilamine. It counts as cell-based.
The next data set has as its system Listeria monocytogenes. Kind of data set: Minimum inhibition concentration of prenilamine. It counts as cell-based.
In data set [1] the test system is Corynebacterium diphtherise. Kind of data set: Minimum inhibition concentration of prenilamine. In kind it is cell-based.
A further data set concerns Haemophilus influensae. Kind of data set: Minimum inhibition concentration of prenilamine. It counts as cell-based.
The next data set relates to Candida albicans. Kind of data set: Minimum inhibition concentration of prenilamine. It counts as cell-based.
Another data set deals with Streptococcus mitis. Description: Minimum inhibition concentration of prenilamine. In kind it is cell-based.
A further data set in a line: Solubility in water. In kind it is physicochemical.
In a further data set the test system is Staphylococcus aureus. Kind of data set: Minimum inhibition concentration of prenilamine. It counts as cell-based.
Data set [2] has as its system Streptococcus haemolyticus. Description: Minimum inhibition concentration of prenilamine. It counts as cell-based.
For a further data set, the system named is Neisseria pharingis. Kind of data set: Minimum inhibition concentration of prenilamine. It counts as cell-based.
For data set [3], the system named is Lactobacillus acidophilus. Description: Minimum inhibition concentration of prenilamine. It counts as cell-based.
The subject of the next data set is Gram-positive. The conditions noted are these: cited from earlier work.
The test system of the next data set is Yeast. The conditions noted are these: cited from earlier work.
Another data set has as its system Gram-negative. The conditions noted are these: cited from earlier work.
The test system of the next data set is Fungi. Particulars: cited from earlier work.

A word on the MIC: it is the least concentration at which growth counts as inhibited. The low end stands for greater potency, the high end for weaker potency. As to `CC(Cc1ccccc1)NCCC(c1ccccc1)c1ccccc1` (stereo not shown) [prenilamine, 3,3-diphenylpropyl-1-methylphenethylamine], the MIC with Streptococcus mutans came to 5 µg/mL (≈ 15.2 µM); against Streptococcus pneumoniae it was 30 µg/mL (≈ 91.1 µM); with Staphylococcus epidermis, 30 µg/mL (≈ 91.1 µM); against Listeria monocytogenes it was 10 µg/mL (≈ 30.4 µM); in data set [1], 10 µg/mL (≈ 30.4 µM); against Haemophilus influensae, 60 µg/mL (≈ 182 µM). In addition, the MIC against Candida albicans came out at 100 µg/mL (≈ 304 µM); against Streptococcus mitis it was 5 µg/mL (≈ 15.2 µM); in the data set on Staphylococcus aureus it was 30 µg/mL (≈ 91.1 µM); in data set [2] it was 5 µg/mL (≈ 15.2 µM); in the data set with Neisseria pharingis it was 20 µg/mL (≈ 60.7 µM); in data set [3], 5 µg/mL (≈ 15.2 µM). Also, the Nature of effect result (in the data set on Streptococcus mutans; with Streptococcus pneumoniae; in the data set with Staphylococcus epidermis; in the data set on Listeria monocytogenes; in data set [1]; in the data set with Haemophilus influensae) was “bactericide” each time. In addition, the Nature of effect result is reported as “fungicide” with Candida albicans; “bactericide” in the data set with Streptococcus mitis; “bactericide” in the data set with Staphylococcus aureus; “bactericide” in [2]; “bactericide” in the data set with Neisseria pharingis; “bactericide” in data set [3]. In addition, the solubility in water entry in the data set “Solubility in water” is reported as “do not dissolve well in water”.

Take `O=C(OCc1ccccc1)c1ccc(O)cc1` [Benzyl paraben]: the “Minimum Inhibition Concentration” value in the data set on Gram-positive is 50 µg/mL; with Yeast, 100 µg/mL; with Gram-negative it was 200 µg/mL; in the data set on Fungi, 75 µg/mL.

`Oc1c(Cl)cc(Cl)c(Cl)c1Cc1c(O)c(Cl)cc(Cl)c1Cl` [Hexachlorophene, 3,3',4,4',6,6'-hexachloro-2,2'-methylene-diphenoi]: the “Minimum Inhibition Concentration” value with Gram-positive is reported as 1—10 µg/ml.

For the compound `COC(=O)c1ccc(O)cc1` [Methyl paraben, p-hydroxybenzoic acid methylester], the “Minimum Inhibition Concentration” value is 800 µg/mL in the data set with Gram-positive, 1000 µg/mL with Yeast, 1000 µg/mL in the data set with Gram-negative and 500 µg/mL with Fungi.
